# Test results taken from patent EP0263506B1, “Anticonvulsant composition containing amino acid derivative and use of said amino acid derivative” (priority 1986, dated 1988).
# Where two headings read alike, the source gives them in different places. Marks after values point to notes of the source that are not given here.
# Columns and labels:
# [1] = Horizontal screen assay (HS), neurologic toxicity; format: in vivo; details: mouse; mice; Median Toxic Dose; evaluated using a horizontal screen assay (HS) as opposed to the Rotorod Test; read-out: Tox TD50
# Procedure: (§1) in the eye prior to application of the electrodes so as to prevent the death of the animal. Protection in this test was defined as the abolition of the hind limb tonic extension component of the seizure. The Subcutaneous Pentylenetetrazole (Metrazol^R) Seizure Threshold Test (sc Met) entailed the administration of 85 mg/kg of pentylenetetrazole as a 0.5% solution subcutaneously in the posterior midline. […] Protection was defined as the failure to observe even a threshold seizure (a single episode of clonic spasms of at least 5 sec duration). The effects of the compounds on forced and spontaneous motor activity were evaluated in mice using the Rotorod Test (Tox) or, in some cases, as indicated herein, a horizontal screen assay (HS). The animal was placed on a one-inch diameter knurled plastic rod rotating at 6 rpm after the administration of the drug. Normal mice can remain on a rod rotating at this speed indefinitely. Neurologic toxicity was defined as the failure of the animal to remain on the rod for one minute. The MES and so Met Tests were conducted on single animals while four mice were utilized for the Tox Test. The dose effect behavior of the compounds was evaluated using the above-described procedures by the administration of varying dose levels, treating normally eight mice at each dose. Table I includes an evaluation of the Median Effective Dose (ED50) and the Median Toxic Dose (TD50) of representative compounds. Mice were tested with varying doses of the anticonvulsant to define the limits of complete protection (or toxicity) and no protection (or no toxicity), as well as three points in between these limits. The Median Effective Dose (ED50) was defined as the dose which produced the Pharmacology. […] N-Acetyl-D,L-alanine-N'-benzylamide was tested at […] as well. […] Maximal electroshock seizures (MES) were elicited with a 60 cycle alternating current of 50 mA intensity (5-7 times that necessary to elicit minimal electroschock seizures) delivered for 0.2 sec via corneal electrodes. A drop of 0.9% saline was instilled desired endpoint in 50% of the animals. The Median Toxicity Dose (TD50) was the dose which elicited evidence of minimal neurological toxicity in 50% of the animals.
# The TD50 of D,L-α-acetamido-N-benzyl-3-thiopheneacetamide, D,L-α-acetamido-N-benzyl-2-thiopheneacetamide, D,L-α-acetamido-N-benzyl-2-furanacetamide, D,L-α-acetamido-N-benzyl-2-pyrroleacetamide, D,L-2-acetamido-N-benzyl-2-ethoxyacetamide and D,L-2-acetamido-N-benzyl-2-methoxyacetamide were evaluated using a horizontal screen assay (HS) as opposed to the Rotorod Test.
# [2] = test system: Maximal electroshock seizures (MES); assay: Maximal electroshock seizure test (MES); format: in vivo, mice; details: Mus musculus, read-out: MES ED50
# Procedure: as §1
# [3] = test system: pentylenetetrazole; assay: Subcutaneous Pentylenetetrazole (Metrazol) Seizure Threshold Test (sc Met); format: in vivo, mice; details: for ED50: Mus musculus, sc, 0.5 h, read-out: sc Met ED50
# Procedure: as §1
# [4] = test system: male Carworth Farms #1 mice; assay: Rotorod Test (Tox), neurologic toxicity; format: in vivo; details: Median Toxic Dose, comparison drugs
# Procedure: The effects of the compounds on forced and spontaneous motor activity were evaluated in mice using the Rotorod Test (Tox) or, in some cases, as indicated herein, a horizontal screen assay (HS). The animal was placed on a one-inch diameter knurled plastic rod rotating at 6 rpm after the administration of the drug. Normal mice can remain on a rod rotating at this speed indefinitely. Neurologic toxicity was defined as the failure of the animal to remain on the rod for one minute. The MES and so Met Tests were conducted on single animals while four mice were utilized for the Tox Test. The dose effect behavior of the compounds was evaluated using the above-described procedures by the administration of varying dose levels, treating normally eight mice at each dose. […] Mice were tested with varying doses of the anticonvulsant to define the limits of complete protection (or toxicity) and no protection (or no toxicity), as well as three points in between these limits. […] The Median Toxicity Dose (TD50) was the dose which elicited evidence of minimal neurological toxicity in 50% of the animals.
# [5] = mice, 85 mg/kg pentylenetetrazole subcutaneously, observed for 30 minutes
# [6] = mice, 50 mA, 60 cycle, 0.2 sec via corneal electrodes, abolition of hind limb tonic extension
SMILES,TD50 [1],ED50 [2],"ED50 [2, 6]",other results
"CC(=O)NC(C(=O)NCc1ccccc1)c1ccco1 (racemic) [D,L-α-Acetamido-N-benzyl-2-furanacetamide]",40 mg/kg,10.3 mg/kg,,
"COC(NC(C)=O)C(=O)NCc1ccccc1 (racemic) [D,L-2-Acetamido-N-benzyl-2-methoxyacetamide]",< 300 mg/kg,98.3 mg/kg,,
"CC(=O)NC(C(=O)NCc1ccccc1)c1cccs1 (racemic) [D,L-α-Acetamido-N-benzyl-2-thiopheneacetamide]",30 to 100 mg/kg,44.8 mg/kg,,
"CC(=O)NC(C(=O)NCc1ccccc1)c1ccc[nH]1 (racemic) [D,L-α-Acetamido-N-benzyl-2-pyrroleacetamide]",< 100 mg/kg,16.1 mg/kg,,
"CC(=O)NC(C(=O)NCc1ccccc1)c1ccsc1 (racemic) [D,L-α-Acetamido-N-benzyl-3-thiopheneacetamide]",> 100 mg/kg,87.8 mg/kg,,
"CCOC(NC(C)=O)C(=O)NCc1ccccc1 (racemic) [D,L-2-Acetamido-N-benzyl-2-ethoxyacetamide]",> 112 mg/kg,62 mg/kg,,
"O=C1NC(=O)C(c2ccccc2)(c2ccccc2)N1 [phenytoin, reference compound]",,,10 mg/kg,"sc Met ED50 [3, 5]: not effective"
NC(=O)NC(=O)Cc1ccccc1 [phenacemide],,,87 mg/kg,"ED50 [3, 5]: 116 mg/kg; Tox TD50 [4]: 421 (337-549)* mg/kg"
CCC1(c2ccccc2)NC(=O)N(C)C1=O (stereo not shown) [mephenytoin],,,61 mg/kg,"ED50 [3, 5]: 31 mg/kg; Tox TD50 [4]: 154 mg/kg"
"CCC1(c2ccccc2)C(=O)NC(=O)NC1=O [phenobarbital, reference compound]",,22 mg/kg,,ED50 [3]: 13 mg/kg
